Where “and” joins values, the source holds several entries; their conditions need not be identical. Equal values may be shown once.
Experiments:
[1] = target: Anti-cotinine antibody (SEQ ID NO: 11 / SEQ ID NO: 12, rabbit variable region with human IgG1 Fc domain); assay: Binding of anti-cotinine antibody to ARM compounds by SPR, Biacore T200, 37° C. (Example 202); settings: pH 7.4, rabbit variable region/human IgG1 Fc antibody captured on protein A
Outline: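 Run at 37° C. in 10 mM HEPES pH 7.4, 150 mM NaCl, 0.005% P20, 1% DMSO. Compound titrated from 200 nM (five 3-fold steps) over protein A-captured antibody, with 200/2000 s association/dissociation. 1:1 kinetic fit gave kon, koff, Kd and residence time (1/koff); pKd averaged where runs repeated.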

[2] = target: T1, CHOK1 cells engineered to overexpress human CCR2 (Homo sapiens, UniProt P41597); assay: Antibody dependent cellular cytotoxicity (ADCC) reporter assay (Example 199); format: cell-based; settings: with anti-cotinine antibody SEQ ID NO: 11/12; CHOK1-human CCR2 target cells, Jurkat FcγRIIIa NFAT-luciferase reporter cells; 12-18 hours; read-out: ADCC Reporter Assay pEC50 (converted)
T1 construct: expressed in transfected cells; host or cells: CHOK1 cells
Outline: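 Potency is reported as pEC50 from a nonlinear fit, averaged over runs, using luciferase signal divided by that of compound-free wells. The readout comes from NFAT-luciferase Jurkat cells expressing FcγRIIIa, mixed for 12–18 h with human CCR2-overexpressing CHOK1 cells, 1 pM–10 μM ARM compound and 0.01–200 μg/mL Fc-enhanced anti-cotinine IgG1.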

Compound	pKd of Antibody for ARM Compound of Formula (I) [1]	EC50 [2]
CC(C)N(C)[C@@H]1CC[C@H](N2CC[C@H](Nc3ncnc4ccc(C(F)(F)F)cc34)C2=O)[C@H](NC(=O)COCCNC(=O)COCCNC(=O)CCOCCNC(=O)[C@H]2CC(=O)N(C)[C@@H]2c2cccnc2)C1 [Example 151, (2S,3S)-N-(1-(((1R,2S,5R)-5-(Isopropyl(methyl)amino)-2-((S)-2-oxo-3-((6-(trifluoromethyl)quinazolin-4-yl)amino)pyrrolidin-1-yl)cyclohexyl)amino)-1,7,13-trioxo-3,9,16-trioxa-6,12-diazaoctadecan-18-yl)-1-methyl-5-oxo-2-(pyridin-3-yl)pyrrolidine-3-carboxamide]	9.0755	3030 pM
CC(C)N(C)[C@@H]1CC[C@H](N2CC[C@H](Nc3ncnc4ccc(C(F)(F)F)cc34)C2=O)[C@H](NC(=O)C2CCN(C3CCN(C(=O)CCCCCCCCCNC(=O)[C@@H]4CC(=O)N(C)[C@H]4c4cccnc4)CC3)CC2)C1 [Example 157]	10.135	200 pM
CC(C)N(C)[C@@H]1CC[C@H](N2CC[C@H](Nc3ncnc4ccc(C(F)(F)F)cc34)C2=O)[C@H](NC(=O)[C@H]2CC[C@@H](NC(=O)COCCOCCNC(=O)CNC(=O)[C@H]3CC(=O)N(C)[C@@H]3c3cccnc3)CC2)C1 [Example 171, (2S,3S)-N-(2-((2-(2-(2-(((1S,4s)-4-(((1R,2S,5R)-5-(Isopropyl(methyl)amino)-2-((S)-2-oxo-3-((6-(trifluoromethyl)quinazolin-4-yl)amino)pyrrolidin-1-yl)cyclohexyl)carbamoyl)cyclohexyl)amino)-2-oxoethoxy)ethoxy)ethyl)amino)-2-oxoethyl)-1-methyl-5-oxo-2-(pyridin-3-yl)pyrrolidine-3-carboxamide]	8.7865	802 pM
CC(C)N(C)[C@@H]1CC[C@H](N2CC[C@H](Nc3ncnc4ccc(C(F)(F)F)cc34)C2=O)[C@H](NC(=O)CCCC(=O)NCCCOCCCNC(=O)CCCNC(=O)[C@H]2CC(=O)N(C)[C@@H]2c2cccnc2)C1 [Example 173, N^1-((1R,2S,5R)-5-(Isopropyl(methyl)amino)-2-((S)-2-oxo-3-((6-(trifluoromethyl)quinazolin-4-yl)amino)pyrrolidin-1-yl)cyclohexyl)-N5-(3-(3-(4-((2S,3S)-1-methyl-5-oxo-2-(pyridin-3-yl)pyrrolidine-3-carboxamido)butanamido)propoxy)propyl)glutaramide]	9.1415	794 pM
CC(C)N(C)[C@@H]1CC[C@H](N2CC[C@H](Nc3ncnc4ccc(C(F)(F)F)cc34)C2=O)[C@H](NC(=O)[C@H]2CC[C@@H](NC(=O)CCOCCNC(=O)COCCCNC(=O)[C@H]3CC(=O)N(C)[C@@H]3c3cccnc3)CC2)C1 [Example 175, (2S,3S)-N-(3-(2-((2-(3-(((1 S,4s)-4-(((1R,2S,5R)-5-(Isopropyl(methyl)amino)-2-((S)-2-oxo-3-((6-(trifluoromethyl)quinazolin-4-yl)amino)pyrrolidin-1-yl)cyclohexyl)carbamoyl)cyclohexyl)amino)-3-oxopropoxy)ethyl)amino)-2-oxoethoxy)propyl)-1-methyl-5-oxo-2-(pyridin-3-yl)pyrrolidine-3-carboxamide]	9.244	794 pM and 398 pM
CC(C)N(C)[C@@H]1CC[C@H](N2CC[C@H](Nc3ncnc4ccc(C(F)(F)F)cc34)C2=O)[C@H](NC(=O)CCCC(=O)N[C@H]2CC[C@@H](CNC(=O)CCOCCNC(=O)[C@H]3CC(=O)N(C)[C@@H]3c3cccnc3)CC2)C1 [Example 179, N^1-((1R,2S,5R)-5-(isopropyl(methyl)amino)-2-((S)-2-oxo-3-((6-(trifluoromethyl)quinazolin-4-yl)amino)pyrrolidin-1-yl)cyclohexyl)-N^5-((1R,4S)-4-((3-(2-((2S,3S)-1-methyl-5-oxo-2-(pyridin-3-yl)pyrrolidine-3-carboxamido)ethoxy)propanamido)methyl)cyclohexyl)glutaramide]	9.24	724 pM

Second part, led by results:

pKd of Antibody for ARM Compound of Formula (I) [1]	Compound	EC50 [2]
9.275	CC(C)N(C)[C@@H]1CC[C@H](N2CC[C@H](Nc3ncnc4ccc(C(F)(F)F)cc34)C2=O)[C@H](NC(=O)COCCNC(=O)COCCOCCNC(=O)CCNC(=O)[C@H]2CC(=O)N(C)[C@@H]2c2cccnc2)C1 [Example 143, (2S,3S)-N-(1-(((1R,2S,5R)-5-(Isopropyl(methyl)amino)-2-((S)-2-oxo-3-((6-(trifluoromethyl)quinazolin-4-yl)amino)pyrrolidin-1-yl)cyclohexyl)amino)-1,7,16-trioxo-3,9,12-trioxa-6,15-diazaoctadecan-18-yl)-1-methyl-5-oxo-2-(pyridin-3-yl)pyrrolidine-3-carboxamide]	3240 pM
9.07	CC(C)N(C)[C@@H]1CC[C@H](N2CC[C@H](Nc3ncnc4ccc(C(F)(F)F)cc34)C2=O)[C@H](NC(=O)CCOCCNC(=O)COCCNC(=O)CCOCCNC(=O)[C@H]2CC(=O)N(C)[C@@H]2c2cccnc2)C1 [Example 163, (2S,3S)-N-(19-(((1R,2S,5R)-5-(Isopropyl(methyl)amino)-2-((S)-2-oxo-3-((6-(trifluoromethyl)quinazolin-4-yl)amino)pyrrolidin-1-yl)cyclohexyl)amino)-6,12,19-trioxo-3,10,16-trioxa-7,13-diazanonadecyl)-1-methyl-5-oxo-2-(pyridin-3-yl)pyrrolidine-3-carboxamide]	631 pM
9.3225	CC(C)N(C)[C@@H]1CC[C@H](N2CC[C@H](Nc3ncnc4ccc(C(F)(F)F)cc34)C2=O)[C@H](NC(=O)CCCNc2c(NCCOCCOCCOCCOCCNC(=O)[C@H]3CC(=O)N(C)[C@@H]3c3cccnc3)c(=O)c2=O)C1 [Example 164, (2S,3S)-N-(14-((2-((4-(((1R,2S,5R)-5-(Isopropyl(methyl)amino)-2-((S)-2-oxo-3-((6-(trifluoromethyl)quinazolin-4-yl)amino)pyrrolidin-1-yl)cyclohexyl)amino)-4-oxobutyl)amino)-3,4-dioxocyclobut-1-en-1-yl)amino)-3,6,9,12-tetraoxatetradecyl)-1-methyl-5-oxo-2-(pyridin-3-yl)pyrrolidine-3-carboxamide]	1350 pM
9.06	CC(C)N(C)[C@@H]1CC[C@H](N2CC[C@H](Nc3ncnc4ccc(C(F)(F)F)cc34)C2=O)[C@H](NC(=O)CCOCCOCCOCCNc2c(NCCNC(=O)[C@H]3CC(=O)N(C)[C@@H]3c3cccnc3)c(=O)c2=O)C1 [Example 168, (2S,3S)-N-(2-((2-((2-(2-(2-(3-(((1R,2S,5R)-5-(Isopropyl(methyl)amino)-2-((S)-2-oxo-3-((6-(trifluoromethyl)quinazolin-4-yl)amino)pyrrolidin-1-yl)cyclohexyl)amino)-3-oxopropoxy)ethoxy)ethoxy)ethyl)amino)-3,4-dioxocyclobut-1-en-1-yl)amino)ethyl)-1-methyl-5-oxo-2-(pyridin-3-yl)pyrrolidine-3-carboxamide]	793 pM

Source: patent US20250136722A1, “CYTOTOXICITY TARGETING CHIMERAS” (GLAXOSMITHKLINE INTELLECTUAL PROPERTY DEVELOPMENT LIMITED, priority 2021, published 2025)
